# According to publication PMC3982590 (Biochemistry, 2013):
# Biological target: T1, TtPFK (Thermus thermophilus, UniProt P21777, L313W)
# T1 sequence (P21777 1-322 L313W): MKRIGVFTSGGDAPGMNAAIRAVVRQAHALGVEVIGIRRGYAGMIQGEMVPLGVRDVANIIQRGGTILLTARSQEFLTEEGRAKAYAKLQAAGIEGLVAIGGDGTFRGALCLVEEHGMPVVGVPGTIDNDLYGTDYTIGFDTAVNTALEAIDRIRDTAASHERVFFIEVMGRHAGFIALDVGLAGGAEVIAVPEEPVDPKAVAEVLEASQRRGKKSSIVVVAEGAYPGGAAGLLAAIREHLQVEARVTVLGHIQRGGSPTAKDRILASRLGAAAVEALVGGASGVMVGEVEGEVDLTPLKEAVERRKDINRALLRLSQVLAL
# Test: intrinsic tryptophan fluorescence titration
# Type: binding
structure (smiles),measurement,value
C=C(OP(=O)(O)O)C(=O)O [PEP],Kd,660 ± 60 nM
